Test results reported in ChEMBL document CHEMBL4184333, “Expanding Benzoxazole-Based Inosine 5'-Monophosphate Dehydrogenase (IMPDH) Inhibitor Structure-Activity As Potential Antituberculosis Agents” (J Med Chem, 2018).
≈ marks a conversion by molar mass, not a printed value. Calls of active or inactive are those of the source. The calls are words filed in the database; no cut-off is given here.

Assays:
[1] = test system: Mycobacterium tuberculosis; assay: Antitubercular activity against Mycobacterium tuberculosis H37Rv ATCC 27294 using 7H9/ADC/Tween medium after 1 week in presence of guanine by broth microdilution method; format: functional; settings: H37Rv ATCC 27294, 168 h
[2] = test system: Mycobacterium tuberculosis; assay: Antitubercular activity against Mycobacterium tuberculosis H37Rv ATCC 27294 using GAST/Fe medium after 2 weeks in absence of guanine by broth microdilution method; format: functional, organism-based
[3] = test system: Mycobacterium tuberculosis; assay: Antitubercular activity against Mycobacterium tuberculosis H37Rv ATCC 27294 using 7H9/ADC/Tween medium after 2 weeks in absence of guanine by broth microdilution method; format: functional, organism-based
[4] = target: Inosine-5'-monophosphate dehydrogenase 2 (Homo sapiens, UniProt P12268); assay: Inhibition of human IMPDH2 using IMP as substrate by spectrophotometric method; settings: read-out: Ki(app)
[5] = Half life in mouse liver microsomes in absence of NADPH; format: ADME, microsome
[6] = test system: Mycobacterium tuberculosis; assay: Antitubercular activity against Mycobacterium tuberculosis H37Rv ATCC 27294 using 7H9/ADC/Tween medium after 1 week in absence of guanine by broth microdilution method; format: functional; settings: H37Rv ATCC 27294, 168 h
[7] = target: T1, GMP reductase 2 (Homo sapiens, UniProt Q9P2T1); assay: Inhibition of human GMPR2 using GMP as substrate by spectrophotometric method; settings: read-out: Ki(app)
T1 sequence (Q9P2T1 whole entry): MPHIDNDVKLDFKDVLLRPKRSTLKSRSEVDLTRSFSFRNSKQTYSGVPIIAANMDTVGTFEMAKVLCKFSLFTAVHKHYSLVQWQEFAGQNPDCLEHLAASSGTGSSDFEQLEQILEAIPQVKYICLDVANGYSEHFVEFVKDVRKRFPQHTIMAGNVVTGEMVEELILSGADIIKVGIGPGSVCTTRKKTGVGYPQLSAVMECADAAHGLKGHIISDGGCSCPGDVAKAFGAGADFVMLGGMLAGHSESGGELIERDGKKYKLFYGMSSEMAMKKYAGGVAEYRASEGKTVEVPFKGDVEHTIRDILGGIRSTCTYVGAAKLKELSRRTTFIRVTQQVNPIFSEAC

[8] = test system: Mycobacterium tuberculosis; assay: Antitubercular activity against Mycobacterium tuberculosis H37Rv ATCC 27294 using GAST/Fe medium after 1 week in absence of guanine by broth microdilution method; format: functional; settings: H37Rv ATCC 27294, 168 h
[9] = test system: Mycobacterium tuberculosis; assay: Antitubercular activity against Mycobacterium tuberculosis H37Rv ATCC 27294 using GAST/Fe medium after 1 week in presence of guanine by broth microdilution method; format: functional; settings: H37Rv ATCC 27294, 168 h
[10] = test system: HepG2; assay: (§1) Cytotoxicity against human HepG2 cells after 24 hrs by LDH release assay; format: cell-based; settings: hepg2, 24 h
[11] = test system: HepG2; assay: Cytotoxicity against human HepG2 cells assessed as LDH release at 25 uM after 24 hrs relative to control; format: cell-based; settings: hepg2, 24 h
[12] = as §1; format: cell-based; settings: HepG2 cells, read-out: LD50
[13] = Elimination half life in mouse plasma at 20 mg/kg, po; format: ADME, organism-based; settings: read-out: beta t1/2 (converted)
[14] = Protein binding in mouse serum at 20 mg/kg, po; format: ADME, organism-based; settings: read-out: PB
[15] = test system: HEK-293T; assay: Cytotoxicity against human HEK293T cells assessed as LDH release at 25 uM after 24 hrs relative to control; format: cell-based
[16] = Cmax in mouse at 20 mg/kg, po; format: ADME, organism-based; parameters: dose 20 mg/kg, route oral; settings: in vivo
[17] = test system: Mycobacterium tuberculosis; assay: Antitubercular activity against Mycobacterium tuberculosis H37Rv ATCC 27294 using 7H9/ADC/Tween medium after 1 week in absence of guanine and presence of anhydrotetracycline by Alamar blue assay; format: functional; settings: H37Rv ATCC 27294, 168 h
[18] = Drug metabolism in mouse plasma after 2 hrs; format: ADME, cell-free
[19] = Half life in mouse liver microsomes in presence of NADPH; format: ADME, microsome
[20] = Tmax in mouse at 20 mg/kg, po; format: ADME, organism-based; settings: in vivo
[21] = test system: MCF7; assay: Cytotoxicity against human MCF7 cells assessed as LDH release at 25 uM after 24 hrs relative to control; format: cell-based; settings: mcf7, 24 h
[22] = test system: HeLa; assay: Cytotoxicity against human HeLa cells assessed as LDH release at 25 uM after 24 hrs relative to control; format: cell-based

| Structure (SMILES) | MIC [1] [µM] | Activity [2] | Activity [3] | Ki [4] [µM] | MIC [6] [µM] | Ki [7] [µM] | MIC [8] [µM] | MIC [9] [µM] | Activity [11] [%] | CC50 at 24 h [12] [µM] | also measured |
| --- | --- | --- | --- | --- | --- | --- | --- | --- | --- | --- | --- |
| CCOC(=O)COc1ccc(-c2nc3cc(NC(=O)[C@H](C)Oc4cccc(Cl)c4Cl)ccc3o2)cc1 | 0.23 | Active | Active | > 5 | 0.2 to 3.1 (≈ 0.106 to 1.64 µg/mL) | > 5 | 0.4 (≈ 0.212 µg/mL) | 0.5 | – | – | t1/2 [5]: 1.3 min; Activity [10]: Non-Toxic |
| C[C@H](Oc1cccc(F)c1F)C(=O)Nc1ccc2oc(-c3ccncc3)nc2c1 | 4 | Active | Active | > 5 | 1.9 (≈ 0.751 µg/mL) | > 5 | 4 (≈ 1.58 µg/mL) | 6.3 | – | – | – |
| COc1ccc(-c2nc3cc(NC(=O)[C@H](C)Oc4ccccc4C#N)ccc3o2)cc1 | 4.7 | Active | Active | > 5 | 1.2 (≈ 0.496 µg/mL) | > 5 | 3.1 (≈ 1.28 µg/mL) | 6.3 | 9 to 13 | > 25 | – |
| C[C@H](Oc1cccc(F)c1F)C(=O)Nc1ccc2oc(-c3ccc(C#N)cc3)nc2c1 | 4 | – | – | 2 | 1.5 (≈ 0.629 µg/mL) | > 5 | 3 (≈ 1.26 µg/mL) | 6.3 | 9 to 13 | > 25 | – |
| C[C@H](Oc1cccc(Cl)c1Cl)C(=O)Nc1ccc2oc(-c3ccc(OCC(=O)O)cc3)nc2c1 | 20 | – | – | > 5 | 9 (≈ 4.51 µg/mL) | > 5 | 2 (≈ 1 µg/mL) | 4 | – | – | t1/2 [5]: 23 min |
| C[C@H](Nc1cccc(F)c1F)C(=O)Nc1ccc2oc(-c3ccc(C#N)cc3)nc2c1 | 1.4 | Active | Active | > 5 | 1 to 3.1 (≈ 0.418 to 1.3 µg/mL) | > 5 | 2 (≈ 0.837 µg/mL) | 6 | 9 to 13 | > 25 | half-life [13]: 300 min; fraction unbound [14]: < 0.01; Activity [15]: < 10%; Cmax [16]: 3000 nM; MIC [17]: 3.1 µM; Drug metabolism [18]: Metabolite_Notdetected; t1/2 [19]: 26 min; Tmax [20]: 30 min; Activity [21]: < 10%; Activity [22]: < 10% |
| C#CCOC(=O)COc1ccc(-c2nc3cc(NC(=O)[C@H](C)Oc4cccc(Cl)c4Cl)ccc3o2)cc1 | 0.4 | Active | Active | > 5 | 0.2 (≈ 0.108 µg/mL) | > 5 | 0.4 (≈ 0.216 µg/mL) | 1.4 | – | – | Activity [10]: Non-Toxic |
| C[C@H](Nc1cccc(Cl)c1Cl)C(=O)Nc1ccc2oc(-c3ccc(C#N)cc3)nc2c1 | 6 | Active | Active | 3.3 | 3 (≈ 1.35 µg/mL) | > 5 | 4 (≈ 1.81 µg/mL) | 13 | – | – | – |
| COc1ccc(OC(C)C(=O)Nc2ccc3oc(-c4ccncc4)nc3c2)cc1 (configuration not stated) | 21 | – | – | > 5 | 10 to 12.5 (≈ 3.89 to 4.87 µg/mL) | > 5 | 5.3 (≈ 2.06 µg/mL) | 24 | – | – | MIC [17]: 12.5 µM |
